The record followed here is patent US7951824B2, “4-aryl-pyridine-2-carboxyamide derivatives” (Hoffman-La Roche Inc., priority 2006, dated 2011).

Structures are written as SMILES.

The target of the first assay is T1, human mGlu 5a receptor (Homo sapiens, UniProt P41594).
T1 construct: expressed in transfected cells; host or cells: EBNA cells (transient transfection), membrane homogenates
T1 sequence (P41594 21-1180 isoform P41594-2 limits assumed): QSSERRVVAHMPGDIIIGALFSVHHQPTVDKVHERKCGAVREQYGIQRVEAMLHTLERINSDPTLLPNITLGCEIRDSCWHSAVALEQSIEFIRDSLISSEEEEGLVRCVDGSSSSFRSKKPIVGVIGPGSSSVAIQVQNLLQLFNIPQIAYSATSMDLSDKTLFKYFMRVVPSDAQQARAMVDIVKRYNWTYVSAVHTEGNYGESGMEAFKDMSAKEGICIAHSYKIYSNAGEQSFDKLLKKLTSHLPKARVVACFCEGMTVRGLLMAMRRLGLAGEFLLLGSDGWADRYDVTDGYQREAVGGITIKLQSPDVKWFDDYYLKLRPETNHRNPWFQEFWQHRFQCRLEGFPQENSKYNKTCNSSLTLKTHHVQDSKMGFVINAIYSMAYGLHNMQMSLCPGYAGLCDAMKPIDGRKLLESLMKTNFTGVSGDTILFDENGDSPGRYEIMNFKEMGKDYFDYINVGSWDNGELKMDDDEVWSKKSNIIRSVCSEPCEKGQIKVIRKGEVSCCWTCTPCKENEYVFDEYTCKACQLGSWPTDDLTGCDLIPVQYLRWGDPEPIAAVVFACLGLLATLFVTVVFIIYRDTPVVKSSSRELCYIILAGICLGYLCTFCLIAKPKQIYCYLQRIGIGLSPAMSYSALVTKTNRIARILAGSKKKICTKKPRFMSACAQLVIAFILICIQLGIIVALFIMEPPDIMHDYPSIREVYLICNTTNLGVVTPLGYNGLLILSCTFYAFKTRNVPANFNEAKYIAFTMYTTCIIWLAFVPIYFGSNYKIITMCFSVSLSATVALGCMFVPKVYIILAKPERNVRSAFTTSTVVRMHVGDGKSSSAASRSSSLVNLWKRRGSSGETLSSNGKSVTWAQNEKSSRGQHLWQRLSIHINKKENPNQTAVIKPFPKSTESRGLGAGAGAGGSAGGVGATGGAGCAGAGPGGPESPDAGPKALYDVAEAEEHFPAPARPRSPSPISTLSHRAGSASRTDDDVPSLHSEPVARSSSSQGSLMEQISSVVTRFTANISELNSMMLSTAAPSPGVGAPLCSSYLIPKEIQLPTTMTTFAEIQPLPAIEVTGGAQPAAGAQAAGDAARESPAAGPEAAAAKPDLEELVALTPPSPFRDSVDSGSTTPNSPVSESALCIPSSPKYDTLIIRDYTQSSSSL
The experiment in a line: [3H]MPEP competition binding on membranes of EBNA cells transfected with human mGlu 5a receptor. To be noted: competition with [3H]MPEP (2 nM), 1 h at 4° C., EBNA cell membranes. As to the method: The pharmacological activity of the compounds was tested using the following method: For binding experiments, cDNA encoding human mGlu 5a receptor was transiently transfected into EBNA cells using a procedure described by Schlaeger and Christensen [Cytotechnology 15:1-13 (1998)]. Cell membrane homogenates were stored at −80° C. until the day of assay where upon they were thawed and resuspended and polytronised in 15 mM Tris-HCl, 120 mM NaCl, 100 mM KCl, 25 mM CaCl2, 25 mM MgCl2 binding buffer at pH 7.4 to a final assay concentration of 20 μg protein/well.
Saturation isotherms were determined by addition of twelve [^3H] MPEP concentrations (0.04-100 nM) to these membranes (in a total volume of 200 μd) for 1 h at 4° C. Competition experiments were performed with a fixed concentration of [^3H]MPEP (2 nM) and IC50 values of test compounds evaluated using 11 concentrations (0.3-10,000 nM). Incubations were performed for 1 h at 4° C.
At the end of the incubation, membranes were filtered onto unifilter (96-well white microplate with bonded GF/C filter preincubated 1 h in 0.1% PEI in wash buffer, Packard Bio-Science, Meriden, Conn.) with a Filtermate 96 harvester (Packard BioScience) and washed 3 times with cold 50 mM Tris-HCl, pH 7.4 buffer. Nonspecific binding was measured in the presence of 10 μM MPEP. The radioactivity on the filter was counted (3 min) on a Packard Top-count microplate scintillation counter with quenching correction after addition of 45 μl of microscint 40 (Canberra Packard S. A., Zürich, Switzerland) and shaking for 20 min.
For binding experiments the Ki values of the compounds tested are given. The Ki value is defined by the following formula: KiIC50/[1+L/Kd] in which the IC50 values are those concentrations of the compounds tested which cause 50% inhibition of the competing radioligand ([^3H]MPEP). L is the concentration of radioligand used in the binding experiment and the Kd value of the radioligand is empirically determined for each batch of membranes prepared.
On to `Cc1nc(C(=O)Nc2ccnc(Cl)c2)cc(-c2cc(F)cc(F)c2)n1` [Example 36, 6-(3,5-Difluoro-phenyl)-2-methyl-pyrimidine-4-carboxylic acid (2-chloro-pyridin-4-yl)-amide], for which the inhibitory constant (Ki) was determined as 113 nM.
In the case of `Cc1cc(-c2ccc(F)cc2)cc(C(=O)Nc2ccnc(C)n2)n1` [Example 32, 4-(4-Fluoro-phenyl)-6-methyl-pyridine-2-carboxylic acid (2-methyl-pyrimidin-4-yl)-amide], the inhibition constant Ki came to 501 nM.
Take `Cc1cc(-c2cncc(C(F)(F)F)c2)cc(C(=O)Nc2nc(C)cs2)n1` [Example 131, 6′-Methyl-5-trifluoromethyl-[3,4′]bipyridinyl-2′-carboxylic acid (4-methyl-thiazol-2-yl)-amide]: the Ki stood at 196 nM.
`Cc1cc(-c2cc(F)cc(F)c2)nc(C(=O)Nc2ccn(C)n2)n1` [Example 198, 4-(3,5-Difluoro-phenyl)-6-methyl-pyrimidine-2-carboxylic acid (1-methyl-1H-pyrazol-3-yl)-amide]: the Ki was 181 nM.
For the molecule `Cc1cc(NC(=O)c2cc(-c3ccc(F)cc3)cc(C)n2)ccn1` [Example 28, 4-(4-Fluoro-phenyl)-6-methyl-pyridine-2-carboxylic acid (2-methyl-pyridin-4-yl)-amide], the Ki stood at 411 nM.
As to `Cc1cc(-c2ccc(F)cc2)cc(C(=O)Nc2cccc(Cl)c2)n1` [Example 26, 4-(4-Fluoro-phenyl)-6-methyl-pyridine-2-carboxylic acid (3-chloro-phenyl)-amide], the Ki is 287 nM.
For the molecule `Cc1cc(-c2cncc(F)c2)cc(C(=O)Nc2ccccc2)n1` [Example 180, 5-Fluoro-6′-methyl-[3,4′]bipyridinyl-2′-carboxylic acid phenylamide], the Ki came out at 364 nM.
As to `Cc1cc(-c2cc(F)cc(F)c2)cc(C(=O)Nc2ncc(C)s2)n1` [Example 86, 4-(3,5-Difluorophenyl)-6-methyl-pyridine-2-carboxylic acid (5-methyl-thiazol-2-yl)-amide], the Ki came to 929 nM.
With `Cc1nc(C(=O)Nc2csc(C)n2)cc(-c2cc(F)cc(F)c2)n1` [Example 34, 6-(3,5-Difluoro-phenyl)-2-methyl-pyrimidine-4-carboxylic acid (2-methyl-thiazol-4-yl)-amide], the Ki was 36 nM.
In the case of `Cc1nc(C(=O)Nc2ccn(C)n2)cc(-c2cc(F)cc(F)c2)n1` [Example 35, 6-(3,5-Difluoro-phenyl)-2-methyl-pyrimidine-4-carboxylic acid (1-methyl-1H-pyrazol-3-yl)-amide], the Ki worked out at 51 nM.
On to `Cc1cc(-c2cc(F)cc(F)c2)nc(C(=O)Nc2ccnc(Cl)c2)n1` [Example 194, 4-(3,5-Difluoro-phenyl)-6-methyl-pyrimidine-2-carboxylic acid (2-chloro-pyridin-4-yl)-amide], for which the Ki is 221 nM.

The same assay, now with this note: competition with [3H]MPEP (2 nM), 1 h at 4° C., EBNA cell membranes, head prints no unit.
With `Cc1cc(-c2cc(Cl)cc(Cl)c2)cc(C(=O)Nc2nc(C)cs2)n1` [Example 17, 4-(3,5-Dichloro-phenyl)-6-methyl-pyridine-2-carboxylic acid (4-methyl-thiazol-2-yl)-amide], the Ki is 2 nM.
Still for that read-out and setting: as for `Cc1cc(-c2cccc(CO)c2)cc(C(=O)Nc2nc(C)cs2)n1` [Example 15, 4-(3-Hydroxymethyl-phenyl)-6-methyl-pyridine-2-carboxylic acid (4-methyl-thiazol-2-yl)-amide], the figure is 17 nM; as for `Cc1cc(-c2cc(F)cc(F)c2)cc(C(=O)Nc2nc(C)cs2)n1` [Example 2, 4-(3,5-Difluoro-phenyl)-6-methyl-pyridine-2-carboxylic acid (4-methyl-thiazol-2-yl)-amide], 7 nM.
`Cc1cc(-c2cncnc2)cc(C(=O)Nc2nc(C)cs2)n1` [Example 18, 6-Methyl-4-pyrimidin-5-yl-pyridine-2-carboxylic acid (4-methyl-thiazol-2-yl)-amide]: the Ki amounted to 124 nM.
As for `Cc1cc(-c2cccnc2)cc(C(=O)Nc2nc(C)cs2)n1` [Example 16, 6′-Methyl-[3,4′]bipyridinyl-2′-carboxylic acid (4-methyl-thiazol-2-yl)-amide], the Ki was 17 nM.

Broadly, the Ki is the dissociation constant of the complex between target and ligand, obtained from inhibition or displacement.
